The test system of one assay is aP2. Kind of assay: Immunoblot of aP2 expression in 3T3-L1 adipocytes. As to conditions: 1 ug/ml; normalized with actin. It counts as cell-based, mouse. Here is the method: (§1) Experimental protocol: Mouse pre-adipocyte 3T3-L1 cells are maintained in Dulbecco's Modified Eagles Medium (DMEM) supplemented with 2 mM glutamine, 4.5 g/L glucose and 10% fetal bovine serum. Equal number of cells was plated in each well of 24-well culture plates. Cells were pre-treated separately with 1 μg/mL 7-hydroxyfrullanolide for 2 h and followed by addition of differentiation medium containing 500 nM insulin, 1.0 μM dexamethasone, and 0.5 mM isobutylmethylxanthine (IBMX) for 48 h. Thereafter, cells were further incubated with post differentiation medium (DMEM containing 100 nM insulin) in presence or absence of 7-HF. […] Protein content was measured in Bradford method by using Coomassie blue dye and cell lysates were stored in aliquots at −80° C. until further use. The modulation of adipocyte differentiation markers such as Peroxisome proliferator-activated receptor gamma (PPARγ), CD36, adipocyte fatty acid binding protein (aP2); and intracellular lipid droplet surface associated protein, perilipin expression were evaluated by immunoblot assay.
(§2) Inhibition of protein expression of biomarker molecules adipocytes in presence or absence of 7-hydroxyfrullanolide (7-HF) was evaluated in immunoblot assay. […] Band intensities were calculated densitometrically and normalized with expression of actin in respective samples.

For assay [1], the system named is J774 mouse macrophage cells. Kind of assay: Lipid accumulation in high glucose induced macrophage cells (in vitro model of atherosclerosis). It counts as cell-based. As to conditions: 1 μg/ml; 600 mg/dL glucose, 5 days. Here is the method:
Experimental protocol: This was evaluated in glucose induced J774, mouse macrophage cells. Briefly, the cells were cultured in DMEM with 2 mM Glutamine, 100 U/mL penicillin, […] streptomycin and 10% fetal bovine serum (Hyclone, Logan, Utah). Equal number of cells was seeded into 35 mm petri dishes (Corning, USA) one day before the experiment. The culture media was replaced with fresh, glucose free DMEM supplemented with 10% fetal bovine serum. 7-HF was diluted at […] and all cultures were pre-incubated for 2 hours at 5% CO2 at 37° C., and then incubated with 600 mg/dL of glucose for 5 days. Representative photomicrographs showing inhibition of lipid accumulation by 7-HF in high glucose induced macrophage cells of an in vitro model of atherosclerosis are shown in Figure IV. The control culture was supplemented with 100 mg/dL glucose. The cells were harvested and lysed with lysis buffer. Cell lysates were clarified at 14,000 g. Protein concentration was measured by Bradford method.

A further assay relates to PPARγ. Kind of assay: Immunoblot of PPARγ expression in 3T3-L1 adipocytes. It counts as cell-based, mouse. As to conditions: 1 ug/ml; normalized with actin. Here is the method: as §1, §2
In a further assay the test system is ADRP. Kind of assay: Immunoblot of ADRP expression in 3T3-L1 adipocytes. The following applies: 1 ug/ml; normalized with actin. It counts as cell-based, mouse. On the procedure:
as §1, §2

A further assay relates to adiponectin. Kind of assay: Western immunoblot of adiponectin in 3T3-L1 adipocytes. As to conditions: 1 μg/ml; 3T3-L1 mature adipocytes. It counts as cell-based, mouse. On the procedure:
as §1
Inhibition of protein expression of biomarker molecules adipocytes in presence or absence of 7-hydroxyfrullanolide (7-HF) was evaluated in immunoblot assay. […] Band intensities were calculated densitometrically and normalized with expression of actin in respective samples. […]

In assay [2] the test system is 3T3-L1 pre-adipocyte cells. Nature of the assay: Pro-lipolytic activity in differentiated adipocytes (free glycerol release). The following applies: 5 μg/mL; increase in glycerol release. It counts as cell-based, mouse. Here is the method: The lipolytic activity was assessed in mature adipocytes as per the procedure of Chemicon International, USA, by measuring free glycerol secreted into the culture medium. One hundred thousand 3T3-L1 […] pre-adipocyte cells in Dulbecco's Modified Eagles Medium (DMEM) containing 10% Fetal Bovine Serum (FBS) were taken into each well of a 24-well plate and incubated for 48 h at 37° C. and 5% CO2. The differentiation of pre-adipocyte cells was initiated in a differentiation medium containing 10 µg/ml insulin, 1.0 µM dexamethasone, and 0.5 mM isobutylmethylxanthine (IBMX). The cells were differentiated for 5 days and then the culture medium was removed. The monolayer was washed twice with wash solution (Hank's balanced salt solution), and then 250 µL of incubation solution (Hank's balanced salt solution plus 2% bovine serum albumin) was added to the wells in triplicate in presence or absence of 7-hydroxyfrullanolide or its analogs or the extracts containing 7-HF, and the cells were further incubated for 16 h. To measure lipolysis, 200 μL of free glycerol assay reagent was added to 25 µL of culture supernatants and controls containing glycerol standard. The samples and the controls were incubated for 15 min, and the absorbance was read at 540 nm. A standard curve constructed from the glycerol was used to calculate the concentration of free glycerol in the culture supernatants. The percentage increase in glycerol concentration in the sample solutions compared to the control containing the known concentrations of glycerol corresponds to the percentage acceleration of lipolysis by test compound.

The next assay deals with CD36. Kind of assay: Immunoblot of CD36 expression in 3T3-L1 adipocytes. It counts as cell-based, mouse. As to conditions: 1 ug/ml; normalized with actin. Here is the method: as §1, §2

As for `C=C1C(=O)O[C@H]2C3=C(C)CCC[C@]3(C)CC[C@@]12O` [7-HF (1), 7-hydroxyfrullanolide], in the assay with aP2, the aP2 protein expression entry is recorded as “down-regulation”. In addition, in assay [1], the “lipid accumulation in high glucose induced macrophage cells” value is on record as “inhibited lipid accumulation”. Besides, in the assay on PPARγ, the PPARγ protein expression entry was “down-regulation”. Moreover, the ADRP protein expression result with ADRP is on record as “down-regulation”. For the same compound, the adiponectin protein expression entry with adiponectin was “potent upregulation”. Moreover, the “% acceleration of lipolysis” value in assay [2] turned out to be 47.8%. Moreover, the CD36 protein expression result in the assay on CD36 is “down-regulation”.

Values taken from patent US20130136809A1, “7-HYRDROXYFRULLANOLIDE ITS ANALOGS FOR PREVENTION CONTROL AND TREATMENT OF METABOLIC DISORDERS” (LAILA NUTRACEUTICALS, priority 2009, published 2013).
